According to patent publication US20250011404A1, “TARGETING APOE ENHANCES T-CELL KILLING IN CANCER IMMUNOTHERAPY” (Children's National Medical Center, priority 2021, published 2025):

System: naïve C57/BL6 splenocytes co-cultured with immunogenic B16 tumor cells
Assay: IFNγ ELISA, naïve splenocytes co-cultured with Myc-inhibited immunogenic B16 tumor cells
Type: cell-based, mouse
Experimental: To further investigate the influence of tumor secreted apoE on immune cell function, immunogenic B16 tumor cells (B16 cells treated with Myc inhibitors (0.25 μM BET+0.25 μM JQ1 for 4 days) were irradiated at 60 Gray and co-cultured with naïve C57/BL6 splenocytes in the presence of either apoE mimetic COG133 at 0.3, 3 and 9 μM or anti-APOE blocking antibody at 1, 10 and 30 μg/ml concentrations. Prior work has shown the immunogenic effect of treating cancer cells with Myc inhibitors and irradiation. IFNγ production was quantified by ELISA at 48 h. Splenocytes produced high levels of IFNγ when co-cultured with Myc-inhibited immunogenic B16 cells as shown in FIGS. 3A-3C. Exposure of these cells to apoE mimetic COG133 repressed IFNγ production (6-fold reduction) (FIG. 3A), while the presence of Anti-APOE antibody enhanced IFNγ production (3-fold increase) (FIG. 3B). We also tested IFNγ production from vaccinated splenocytes following co-culture with treated and untreated B16 cells in the presence of COG 133. […] In addition to IFNγ, we also quantified other cytokine/chemokines using ProcartaPlex multiplex immunoassay. […]
WT and apoE^−/− mice or WT and lrp8^−/− mice, were inoculated with either WT B16 or apoE^−/− B16 cells, with anti-CTLA4 antibody on day 0. […] Readings were measured at 450 nm using the EnSpire 2300 Multilabel plate reader (Perkin Elmer, Waltham, Massachusetts, US).

COG133: a fragment of apoE peptide, which competes with the apoE holoprotein for binding the LDL receptors and acts as an apoE mimetic
splenocyte production of IFNγ in presence of COG133 (naïve and vaccinated splenocytes + BET/JQ1 treated B16 cells (FIG. 3A)): markedly reduced | IFNγ production, reduction (naïve splenocytes + Myc-inhibited irradiated B16 cells, COG133 at 0.3, 3 and 9 μM, ELISA at 48 h): 6 fold
